Experiments:
NSCLC = settings: patients with NSCLC; clinical trials terminated; cited from earlier work
[1] = tested on: NSCLC cell line NCI-H2228; assay: ADCC activity against pemetrexed-treated NCI-H2228 using healthy donor PBMCs (LDH release); type: cell-based, human; settings: for ADCC activity against NCI-H2228 cultured with pemetrexed versus cultured without pemetrexed: 1000 nmol/L pemetrexed, P<0.05
Protocol: (§1) These cells were adjusted at 1×10^4 cells/50 μL using ADCC measurement medium [phenol red-free RPMI1640 (GIBCO), 5% inactivated dFCS (GIBCO)] as target cell solutions.
(§2) Next, heparin-treated peripheral blood of a healthy donor was loaded into a LeucoSep lymphocyte separation tube (Greiner) filled with Lymphoprep (Cosmo Bio), and centrifuged at 1000×g for 20 minutes at room temperature.
(§3) After the centrifugation, the plasma fraction was removed, and the peripheral blood mononuclear cell (PBMC) layer was collected. Then, the cells were washed with the ADCC measurement medium. The PBMCs were adjusted at 2.5×10^5 cells/50 μL using the ADCC measurement medium as an effector cell solution.
HuRA15-7CTAcc antibody and MORAb-003 (farletuzumab) were used as anti-human FOLR1 humanized antibodies.
(§4) Fifty μL of each the target cell solution, the effector cell solution, and the antibody solution, which were prepared as described above, were mixed in a U-bottom 96-well plate, so that the total volume of each well was 150 μL. After mixing the wells, the cells were precipitated by centrifugation at 50×g for five minutes at room temperature. These cells were reacted for four hours at 37° C.
(§5) After mixing the wells, the cells were precipitated again by centrifugation. Then, 50 μL of the supernatant of each well was dispensed to a new 96-well plate. The lactate dehydrogenase (LDH) activities of the dispensed supernatant solutions were measured using CytoTox 96 Non-Radioactive Cytotoxicity Assay (Promega) according to the instruction.
(§6) The ADCC activity was calculated by the following equation after subtracting the measured LDH activity value of the well containing the ADCC measurement medium only from the measured LDH activity value of all wells. These values were determined as the corrected LDH activity value of each well.
ADCC Activity (%)=100×(Exp−ET spo)/(T total−D−T spo) [Chem. 1] […]
The ADCC activity against the NSCLC cell line NCI-H2228 was evaluated by a similar method to that in Example 3 except for using pemetrexed at the final concentration of 0, 20 or 1000 nmol/L in the culture.

[2] = tested on: ovarian cancer cell line MCAS; assay: ADCC activity against pemetrexed-treated MCAS using healthy donor PBMCs (LDH release); type: cell-based, human; settings: for ADCC activity against MCAS cultured with pemetrexed versus cultured without pemetrexed: 20 nmol/L pemetrexed, P<0.05
Protocol: as §1, §2, §3
HuRA15-7CTAcc antibody and MORAb-003 (farletuzumab) were used as anti-human FOLR1 humanized antibodies. The antibody solutions were prepared at 0.1, 1, 10, 100 and 1000 ng/mL with the ADCC measurement medium, so that the final concentrations of the assay became 0.033, 0.33, 3.3, 33 and 333 ng/mL.
as §4, §5, §6
ADCC Activity (%)=100×(Exp−ET spo)/(T total−D−T spo) [Chem. 1]
Here, Exp is the corrected LDH activity value of a sample; ET spo is the corrected LDH activity value of the well in which the effector cell solution and the target cell solution were mixed; T total is the corrected LDH activity value of the well in which the target cells and the Lysis Solution attached to CytoTox 96 Non-Radioactive Cytotoxicity Assay were mixed; D is the corrected LDH activity value of the Lysis Solution; and T spo is the corrected LDH activity value of the well containing the target cells only.

ovarian cancer = settings: cited from earlier work
in vitro = settings: human, MCAS ovarian cancer cells
Protocol: Then, detached cells were suspended in the folic acid-free medium, and the cells were seeded to 175-cm^2 TC flasks at 25×10^5 cells/28 mL. After 24-hour incubation, 14 mL of the 3× low folic acid medium was added, and the final folic acid concentration was adjusted at approximately 22.7 nmol/L. Then, pemetrexed was added to the culture at the final concentration of 0 or 20 nmol/L, and the cells were cultured for further 72 hours.
The cultured cells were detached from the culture flasks using 0.02% EDTA solution (Nacalai), and the cell counts and the viability were measured using Vi-CELL XR 2.01 (Beckman Coulter).

[3] = tested on: FOLR1 expression in NCI-H838; assay: Expression level of FOLR1 in NSCLC cell line after incubation with pemetrexed (flow cytometry, MFI); type: cell-based, human; settings: NCI-H838, low folic acid medium, 0, 10 or 1000 nmol/L pemetrexed, 72 hours
Protocol: (§7) NSCLC cell lines such as NCI-H522 [American Type Culture Collection (hereinafter referred to as ATCC) No. CRL-5810], NCI-H838 (ATCC No. CRL-5844), NCI-H1437 (ATCC No. CRL-5872) and NCI-H2228 (ATCC No. CRL-5935) were cultured in a culture medium [RPMI1640 (GIBCO), 10% inactivated bovine serum (FCS, GIBCO)].
(§8) Next, cells were detached from culture flasks using TrypLE Express (GIBCO) and suspended in a folic acid-free medium [RPMI 1640 folate-free (GIBCO), 10% inactivated dialyzed FCS (dFCS, GIBCO)]. The cells were seeded to 25-cm^2 tissue culture (TC) flasks at 2.5×10^5 cells/4 mL.
(§9) After culturing each cell line under the above conditions, cells were detached using TrypLE Express, washed with phosphate buffer saline (PBS) and then suspended in FCM buffer (PBS containing 1 mmol/L EDTA, 0.05% sodium azide and 5% inactivated FCS).
(§10) Next, the cells were seeded in a 96-well plate at 1×10^5 cells per well and centrifuged at 1700 rpm for one minute. After removing the supernatant, an anti-human FOLR1 humanized antibody (HuRA15-7CTAcc antibody) (WO2014/087863) which was prepared at 10 μg/mL with FCM buffer was added to the cells and reacted for 30 minutes at 4° C.
(§11) After washing the cells, Anti-Human IgG-FITC (Jackson) which was diluted 100 times with the FCM buffer was added and reacted for 30 minutes at 4° C. After washing the cells again, the cells were suspended in the FCM buffer. The fluorescence intensities were analyzed with a flow cytometer (Beckman Coulter, Inc., FC500MPL) to determine the mean fluorescence intensity (MFI) of each cell.

[4] = tested on: FOLR1 expression in NCI-H522; assay: as above; type: cell-based, human; settings: NCI-H522, low folic acid medium, 0, 10 or 1000 nmol/L pemetrexed, 72 hours
Protocol: as §7, §8, §9, §10, §11

[5] = tested on: FOLR1 expression in NCI-H2228; assay: as above; type: cell-based, human; settings: NCI-H2228, low folic acid medium, 72 hours
Protocol: as §7, §8, §9, §10, §11

[6] = tested on: FOLR1 expression in NCI-H1437; assay: as above; type: cell-based, human; settings: NCI-H1437, low folic acid medium, 72 hours
Protocol: as §7, §8, §9, §10, §11

[7] = tested on: FOLR1 expression in SKOV-3; assay: Expression level of FOLR1 in ovarian cancer cell line after incubation with pemetrexed; type: cell-based, human
Protocol: as §9, §10, §11
(§12) First, SKOV-3 [American Type Culture Collection (hereinafter referred to as ATCC) No. HTB-77], MCAS (JCRB cell No. JCRB0240), NIH:OVCAR-3 (ATCC No. HTB-161) and IGR-OV1 (National Cancer Institute), which are ovarian cancer-derived cell lines, were cultured in the culture medium.

FOLR1 expression in MCAS = assay: as above; type: cell-based, human
Protocol: as §9, §10, §11, §12

[8] = tested on: FOLR1 expression in IGR-OV1; assay: as above; type: cell-based, human
Protocol: as §9, §10, §11, §12

[9] = tested on: FOLR1 expression in OVCAR-3; assay: as above; type: cell-based, human; settings: OVCAR-3 [FIG. 2(C)], low folic acid medium, regardless of the final pemetrexed concentration
Protocol: as §9, §10, §11, §12

[10] = tested on: FOLR1 expression in HEC-1-B; assay: Expression level of FOLR1 in endometrial cancer cell line after incubation with pemetrexed; type: cell-based, human
Protocol: (§13) Endometrial cancer-derived cell line MES-SA (ATCC No. CRL-1976) and HEC-1-A (ATCC No. HTB-112) were cultured in McCoy's 5A medium (ATCC) containing 10% FCS (GIBCO), and HEC-1-B (ATCC No. HTB-113) was cultured in Eagle's Minimum Essential Medium (ATCC) containing 10% FCS (GIBCO).
(§14) Also, a flow cytometer manufactured by Becton, Dickinson and Company (FACSVerse) was used instead of the flow cytometer manufactured by Beckman Coulter, Inc. (FC500MPL).

[11] = tested on: FOLR1 expression in HEC-1-A; assay: as above; type: cell-based, human
Protocol: as §13, §14

[12] = tested on: FOLR1 expression in MES-SA; assay: as above; type: cell-based, human
Protocol: as §13, §14

[13] = 1000 nmol/L pemetrexed in low folic acid medium
[14] = low folic acid medium, 0, 10 or 1000 nmol/L pemetrexed, 72 hours

MORAb-003: existing anti-human FOLR1 humanized IgG1 antibody, sequences described in WO2005/080431
clinical benefit (NSCLC): did not show benefit | ADCC activity against NCI-H2228 cultured with pemetrexed versus cultured without pemetrexed ([1]; antibody 0.0033, 3.3, 33 and 333 ng/mL): significantly higher | ADCC activity against MCAS cultured with pemetrexed versus cultured without pemetrexed ([2]; healthy donor 2-derived PBMCs, antibody 0.33, 3.3, 33 and 333 ng/mL): significantly higher | clinical benefit (ovarian cancer; patients with platinum-resistant ovarian cancer, clinical trials terminated): did not show benefit | clinical response (ovarian cancer; patients with platinum-sensitive recurrent ovarian cancer): responses in some patients

Nc1nc2[nH]cc(CCc3ccc(C(=O)N[C@@H](CCC(=O)O)C(=O)O)cc3)c2c(=O)[nH]1 [pemetrexed]
viability at 72 h, 20 nmol/L (in vitro): 96.6% | expression level of FOLR1, dependence on pemetrexed concentration [3]: higher concentration of pemetrexed induced higher expression level of FOLR1 | expression level of FOLR1, dependence on pemetrexed concentration [4]: higher concentration of pemetrexed induced higher expression level of FOLR1 | expression level of FOLR1 relative to incubation with 0 nmol/L pemetrexed ([5]; 10 nmol/L pemetrexed): about 1.5 times | expression level of FOLR1 relative to incubation with 0 nmol/L pemetrexed ([5]; 1000 nmol/L pemetrexed): ~2 times | expression level of FOLR1 relative to incubation with 0 nmol/L pemetrexed ([6]; 10 nmol/L pemetrexed): about 1.5 times | expression level of FOLR1 relative to incubation with 0 nmol/L pemetrexed ([6]; 1000 nmol/L pemetrexed): ~2 times | expression level of FOLR1 relative to incubation in the culture medium (NC) ([7]; SKOV-3, 1000 nmol/L pemetrexed in low folic acid medium): about 2.5 times | expression level of FOLR1, dependence on pemetrexed concentration ([7]; SKOV-3, low folic acid medium, 0, 10 or 1000 nmol/L pemetrexed): higher concentration of pemetrexed induced higher expression level of FOLR1 | expression level of FOLR1 relative to incubation in the culture medium (NC) (FOLR1 expression in MCAS; [13]): about 7 times | expression level of FOLR1, dependence on pemetrexed concentration (FOLR1 expression in MCAS; low folic acid medium, 0, 10 or 1000 nmol/L pemetrexed): higher concentration of pemetrexed induced higher expression level of FOLR1 | expression level of FOLR1 relative to incubation in the culture medium (NC) ([8]; IGR-OV1, 1000 nmol/L pemetrexed in low folic acid medium): about 2.5 times | expression level of FOLR1, dependence on pemetrexed concentration ([8]; IGR-OV1, low folic acid medium, 0, 10 or 1000 nmol/L pemetrexed): higher concentration of pemetrexed induced higher expression level of FOLR1 | expression level of FOLR1 compared to incubation in the culture medium [9]: did not increase | expression level of FOLR1 relative to culture in the culture medium (NC) [10, 13]: approximately 2 times | expression level of FOLR1, dependence on pemetrexed concentration [10, 14]: higher pemetrexed treatment induced higher expression level of FOLR1 | expression level of FOLR1 relative to culture in the culture medium (NC) [11, 13]: approximately 3 times | expression level of FOLR1, dependence on pemetrexed concentration [11, 14]: higher pemetrexed treatment induced higher expression level of FOLR1 | expression level of FOLR1 relative to culture in the culture medium (NC) [12, 13]: approximately 3.5 times | expression level of FOLR1, dependence on pemetrexed concentration [12, 14]: higher pemetrexed treatment induced higher expression level of FOLR1

B1: HuRA15-7CTAcc: anti-human FOLR1 humanized antibody, VH SEQ ID NO: 8, VL SEQ ID NO: 9, expressed in FUT8 knocked out CHO/DG44 (WO2014/087863) (antibody, V domains shown)
VH: EVQLVESGGGLVQPGGSLRLSCAASGFTFTDFYMNWVRQPPGKAPEWLGFIRNKANGYTTEFNPSVKGRFTISRDNSKNSLYLQMNSLKTEDTATYYCARTLYGYAYYYVMDAWGQGTLVTVSS
VL: DIQMTQSPSSLSASLGDRVTITCRTSEDIFRNLAWYQQKPGKAPKLLIYDTNRLADGVPSRFSGSGSGTDYTLTISSLQPEDFATYFCQQYDNYPLTFGQGTKLEIK
modifications: afucosylated; nonS_HuRA15-7CTVH_AA; nonS_HuRA15-7LV3_AA
ADCC activity against NCI-H2228 cultured with pemetrexed versus cultured without pemetrexed ([1]; all the antibody concentrations): significantly higher | ADCC activity, dependence on antibody concentration ([1]; NCI-H2228, PBMCs of a healthy donor): cytotoxicity was observed in association with the antibody concentration | ADCC activity against MCAS cultured with pemetrexed versus cultured without pemetrexed ([2]; healthy donor 1-derived PBMCs, all the antibody concentrations): significantly higher | ADCC activity against MCAS cultured with pemetrexed versus cultured without pemetrexed ([2]; healthy donor 2-derived PBMCs, antibody 0.033 and 0.33 ng/mL): significantly higher | ADCC activity, dependence on antibody concentration ([2]; MCAS, PBMCs of two healthy donors, antibody 0.033-333 ng/mL): cytotoxicity was observed in association with the antibody concentration
